Entries after “also recorded” stand apart in the source; their conditions may differ.
Legend:
[1] = system: DU145 human prostate carcinoma xenografts; assay: DU145 xenografts in nude mice; assay type: in vivo; conditions: 440 mg/kg daily
Method: The dosage of sodium stibogluconate corresponds to approximately 440 mg Sb/kg body weight (average mouse body weight 27 g), substantially higher than the standard therapeutic dose of 20 mg Sb/kg and the high dose (143 mg Sb/kg) that was clinically used by accident without serious toxicity. This dose of sodium stibogluconate was based on a previous observation in a pilot study that mice could tolerate daily dose of 20 mg Sb (approximately 700-800 mg Sb/kg). […] In light of the relatively rapid rate of clearance of the drug in vivo, 440 mg Sb/kg dosage was used to ensure the detection of the effectiveness of the drug for this initial study.
For each of the cell lines, each of 16 mice received subcutaneous injection at the chest area of 3×10^6 cells/site (WM9) or 2×10^6 cells/site (DU145), two sites/mouse, on day 0. Mice were separated into four groups of four to receive treatment, injected into the thigh area starting on day 2. Tumor size was measured with a caliper to determine the two perpendicular diameters of each tumor. Tumor volume was calculated using the method of the NCI (length×width 2 in millimeters/2=volume in cubic millimeters). […]

DU145 cells = assay: DU145 prostate cancer cell growth, MTT assay; assay type: cell-based, human; conditions: single agent, 50-100 μg/ml, day 6
Method: For cell proliferation assays, cells were grown in 10% FCS culture medium containing various amounts of IFNs and/or sodium stibogluconate in 96 well plates and cultured at 37° C. for 3 or 6 days as indicated. The numbers of viable cells in proliferation assays were determined by MTT assays as described in Phatak et al., J. Immunol. 167, 3391 (2001).
NIH3T3 (Yi, et al., Blood 85, 87 (1995)), WM9 (Forsberg, et al., Proc. Nat. Acad Sci. USA 90, 393 (1993)), DU145 (Mickey, et al., Cancer Res. 37, 4049 (1977)), LoVo (Drewinko, et al., Cancer Res. 36, 467 (1976)), HEY (Buick, et al., Cancer Res. 45, 3668 (1985)), U251 (Yoshida, et al., Cancer 50, 410 (1982)), A549 (Giard, et al., J. Natl. Cancer Inst. 51, 1417 (1973)) and SK-N-SH (Helson, et al., Cancer Res. 35, 2594 (1975)) cell lines have been described and were cultured in RPMI 1640 supplemented with 10% fetal calf serum (FCS). For measurement of sodium stibogluconate effects on cell growth in vitro, cells were cultured in the absence (−) or presence (+) of various amounts of sodium stibogluconate for 6 days with viable cells quantified by MTT assays (Mosmann, J. Immunol. Methods 65, 55 (1983)). Percentages of growth inhibition by sodium stibogluconate were calculated (.+−.x

intracellular Flag-PRL-2 = biological target: T1, intracellular Flag-PRL-2 (Homo sapiens, UniProt Q12974); assay: Immunocomplex PTPase assay, Flag-PRL-2 NIH3T3 transfectants; assay type: cell-based, mouse
T1 construct: expressed in transfected cells; host or cells: NIH3T3 transfectants, pBabepuro vector
T1 sequence (Q12974 whole entry): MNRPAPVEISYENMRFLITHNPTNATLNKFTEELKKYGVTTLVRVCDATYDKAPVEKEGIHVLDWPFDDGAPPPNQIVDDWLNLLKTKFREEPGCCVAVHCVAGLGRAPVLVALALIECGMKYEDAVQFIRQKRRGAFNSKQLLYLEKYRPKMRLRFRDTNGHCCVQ
Method: Immunocomplex PTPase assays were performed to assess the effects of sodium stibogluconate on intracellular PTPases. Cells were untreated or treated with sodium stibogluconate for 5 minutes, washed with fresh medium and then lysed in cold lysis buffer (50 mM Tris, pH 7.4; 150 mM NaCl; 1% NP40; 2 mM PMSF; 20, g/ml of Aprotinin). The lysates were incubated with an anti-Flag antibody in immunoprecipitation assays. The immunocomplexes were collected with protein G sepharose beads (Pharmacia) and washed in cold lysis buffer for 4 times. […] 100 µL of malachite green solution (UBI) was added to each reaction prior to measurement of OD660 to quantify the amounts of free phosphate cleaved by the PTPases from the peptide substrate (Pathak et al., J. Imumol. 167, 3391 (2001)). The remaining 10% contents of individual samples were analyzed by SDS-PAGE/Western blotting to quantify the relative amounts of the phosphatase proteins. […]
The effects of sodium stibogluconate on intracellular PTPases were assessed using NIH3T3 or WM9 transfectants. […]

O.O.O.O.O.O.O.O.O.O=C([O-])[C@@H]1[O][Sb]2([O-])([O][Sb]34([OH])[O][C@H]([C@H](O)CO)[C@H]([O]3)[C@H](C(=O)[O-])[O]4)[O][C@H]([C@H](O)CO)[C@@H]1[O]2.[Na+].[Na+].[Na+] [sodium stibogluconate]
histology of major organs [1]: unremarkable | survival of DU145-inoculated mice ([1]; until the end of the study): survived | killing of DU145 cells (DU145 cells): killed all cells; also recorded: complete or near complete killing; also recorded: near-complete cell killing | PTPase activity of Flag-PRL-2 immunocomplexes from treated cells (intracellular Flag-PRL-2; 5 min treatment): lack of PTPase activity; also recorded: markedly reduced PTPase activity | time for full removal of effect on intracellular PRL-2 activity (intracellular Flag-PRL-2; brief treatment): at least 24 hours
